Where “and” joins values, the source holds several entries; their conditions need not be identical. Equal values may be shown once.
Assays:
[1] = test system: ovalbumin-sensitized guinea pigs; test: Active anaphylaxis in the guinea pig: conjunctival symptoms after OVA challenge; assay type: in vivo; conditions: 0.4% eye drops, 30 μl/eye 45 min before OVA
Method: Male Dunkin-Hartley guinea pigs (250-300 g) were purchased from Charles River (Calco, Italy). Animal procedures followed the guidelines of the University of Bologna Animal Care and Use Committee and conformed to the Association for Research in Vision and Ophthalmology (ARVO) resolution on the use of animals in research.
(§1) Male Dunkin-Hartley guinea pigs were actively immunized by i.p. injection of 200 μg OVA in 2 ml saline with 40 mg aluminum hydroxide (positive control) or saline alone (negative control), as previously reported. […] Negative controls received saline alone.
Conjunctival clinical symptoms were rated blind on both eyes using the following scale: 0, no symptoms; 1, slight conjunctival redness with or without tears; 2, mild conjunctival redness with tears and mild chemosis; 3, mild conjunctival redness with tears and moderate chemosis; 4, severe conjunctival redness with tears and partial lid eversion; 5, severe conjunctival redness with tears and lids more than half closed. The animals were euthanized 24 h after OVA challenge by i.p. injection of Tanax® (3 ml/kg; Hoechst AG, Frankfurt-am-Main, Germany) and the conjunctivas were carefully excised and each was divided into two samples for subsequent investigations. […] The number of eosinophils in each field was counted under light microscopy (×500 magnification). In the other sample eosinophil peroxidase activity was measured.

eosinophil peroxidase = test: Eosinophil peroxidase assay in guinea pig conjunctiva; assay type: in vivo; conditions: 0.4% eye drops; 24 h after antigen challenge
Method: as §1
Conjunctival clinical symptoms were rated blind on both eyes using the following scale: 0, no symptoms; 1, slight conjunctival redness with or without tears; 2, mild conjunctival redness with tears and mild chemosis; 3, mild conjunctival redness with tears and moderate chemosis; 4, severe conjunctival redness with tears and partial lid eversion; 5, severe conjunctival redness with tears and lids more than half closed. […] The number of eosinophils in each field was counted under light microscopy (×500 magnification). In the other sample eosinophil peroxidase activity was measured.
Eosinophil peroxidase was assayed as previously reported in conjunctival samples obtained as above described. […] Absorbance was measured using a spectrophotometer (JASCO V-530, Jasco, UK) at 490 nm. […] Eosinophil peroxidase activity was measured according to the method of Strath et al., which is based on the oxidation of o-phenylenediamine by eosinophil peroxidase in the presence of hydrogen peroxide. One unit corresponds to 1 mmol of hydrogen peroxide decomposed for […], and the results were expressed as eosinophil peroxidase levels (mU of enzyme/mg wet tissue).

[2] = test system: ovalbumin-sensitized guinea pigs; test: Conjunctival eosinophil infiltration (histology) in OVA-challenged guinea pigs; assay type: in vivo, guinea pig; conditions: 0.4% eye drops; 24 h after OVA challenge; vs OVA-treated animals
Method: as §1
Conjunctival clinical symptoms were rated blind on both eyes using the following scale: 0, no symptoms; 1, slight conjunctival redness with or without tears; 2, mild conjunctival redness with tears and mild chemosis; 3, mild conjunctival redness with tears and moderate chemosis; 4, severe conjunctival redness with tears and partial lid eversion; 5, severe conjunctival redness with tears and lids more than half closed. The animals were euthanized 24 h after OVA challenge by i.p. injection of Tanax® (3 ml/kg; Hoechst AG, Frankfurt-am-Main, Germany) and the conjunctivas were carefully excised and each was divided into two samples for subsequent investigations. One sample was fixed in 10% buffered paraformaldehyde solution and paraffin-embedded; slides, 6 μm thick, were stained as described. The number of eosinophils in each field was counted under light microscopy (×500 magnification). In the other sample eosinophil peroxidase activity was measured.

[3] = test system: protein concentration in the aqueous humor; test: Protein measurement in aqueous humor; assay type: in vivo, Rabbit; conditions: for Protein in aqueous humor at the second paracentesis, Mean: group mean; for Protein in aqueous humor at the second paracentesis: individual eye sample, listed as BOL
Method: Each rabbit was placed in a restraint device and tagged with the alphanumeric code. The formulations were instilled (50 μl) into the conjunctival sac of both eyes 180, 120, 90 and 30 min before the first paracentesis; then 15, 30, 90 min after the first paracentesis. To perform the first paracentesis the animals were anaesthetized by intravenous injection of 5 mg/kg Zoletil® (Virbac; 2.5 mg/kg tiletamine HCl and 2.5 mg/kg zolazepam HCl) and one drop of local anesthetic (Novesina®, Novartis) was administered to the eye. Anterior chamber paracentesis was performed with a 26 G needle attached to a tuberculin syringe; the needle was introduced into the anterior chamber through the cornea, taking care not to damage the tissues. Two hours after the first paracentesis, the animals were sacrificed with 0.4 ml Tanax® (Intervet International B.V.) and the second paracentesis was performed. About 100 μl of aqueous humor were removed at the second paracentesis. Aqueous humor was immediately split in four aliquots and stored at −80° C. until analysis. Then both eyes were enucleated and the iris-ciliary body was carefully excised, placed in polypropylene tubes, and stored at −80° C. until analysis.
For protein concentration determination in the aqueous humor we used the Protein Quantification Kit (Fluka; Cat. No. 77371; Lot. No. 1303129). Five microliters of aqueous humor were diluted to 100 μl with water. Twenty microliters of samples and of standards were load into a 96-well plate and recorded in a plate layout. Samples were treated following the assay procedure described in the kit. A microplate reader (GDV, Italy; model DV 990 B/V6) set at 670 nm was used for making the calibration and analyzing the samples.

caspase-3 = test: Caspase-3 activation in human eosinophils (Western blotting); assay type: cell-based; conditions: 24 h, 0.1% FBS; BOL-303242-X 1-1000 nM, dexamethasone 1000 nM
Method: Human eosinophils were pelleted and resuspended in 100 μl of CER I buffer (NE-PER™ Extraction reagent; Pierce). After 10 min incubation on ice, 5.5 μl of CER II buffer was added and the suspension was resuspended by vortexing, incubated on ice for 1 min and resuspended. The cytoplasmic fraction was separated by centrifugation at 16,000 g for 5 min. The protein content was quantified using a BCA protein assay (Pierce). The proteins of the cytoplasmic extract (50 μg) were denatured at 95° C. for 3 min, then loaded and separated by 15% sodium dodecyl sulfate-polyacrylamide gel electrophoresis (SDS-PAGE). We used MagicMark™ XP Western Standard as a molecular weight standard.
Proteins were transferred to Protran™ nitrocellulose membranes, which were blocked with 5% non-fat milk in TBS (10 mM Tris-HCl, pH 8, containing 150 mM NaCl) plus 0.1% Tween 20 for 1 h at room temperature (25° C.). The blots were probed overnight at 4° C. in TBS containing 0.1% Tween 20, 5% non-fat milk and antibodies with dilutions of 1:1000 for caspase-3 monoclonal antibody or 1:5000 for β-actin antibody (used as a loading control for cytoplasmic cell lysates). The former detects endogenous levels of procaspase-3 (around 32 kDa; p32) and its large subunit cleavage product of approximately 17 kDa (p17). The membranes were incubated with peroxidase-conjugated secondary antibodies at a dilution of 1:8000. […]

**Q.** What does the source list for `Cc1ccc2c(NC[C@](O)(CC(C)(C)c3cc(F)cc4c3OCC4)C(F)(F)F)cccc2n1` [BOL-303242-X, (R)-1,1,1-Trifluoro-4-(5-fluoro-2,3-dihydrobenzofuran-7-yl)-4-methyl-2-{[(2-methyl-5-quinolyl)amino]methyl}pentan-2-ol]?
**A.** Conjunctival symptoms (swelling of the eyelids and chemosis), early phase ([1]; 1 h after challenge): significantly reduced; Severity of conjunctival symptoms, late phase ([1]; 6 h after challenge): significant reduction in the severity of conjunctival symptoms; Conjunctival eosinophil peroxidase activity (eosinophil peroxidase): noteworthy reduction; Eosinophil infiltration of the conjunctiva (histology) [2]: much less marked; Protein in aqueous humor at the second paracentesis, Mean ([3]; 0.1% topical): 33.667 mg/mL; Protein in aqueous humor at the second paracentesis ([3]; 0.1% topical): 34.87 mg/mL and 34.41 mg/mL and 31.14 mg/mL and 22.82 mg/mL and 29.46 mg/mL and 31.69 mg/mL and 35.70 mg/mL and 49.25 mg/mL; Protein in aqueous humor at the second paracentesis, Mean ([3]; 0.5% topical): 28.844 mg/mL; Protein in aqueous humor at the second paracentesis ([3]; 0.5% topical): 33.98 mg/mL and 33.65 mg/mL and 19.99 mg/mL and 27.11 mg/mL and 19.72 mg/mL and 36.35 mg/mL and 27.71 mg/mL and 32.24 mg/mL; Protein in aqueous humor, statistical comparison with CTR ([3]; 0.5% topical, p<0.05): statistical significance; Protein in aqueous humor at the second paracentesis, Mean ([3]; 1% topical): 21.435 mg/mL; Protein in aqueous humor at the second paracentesis ([3]; 1% topical): 20.99 mg/mL and 21.48 mg/mL and 15.11 mg/mL and 20.28 mg/mL and 20.94 mg/mL and 21.89 mg/mL and 20.03 mg/mL and 30.76 mg/mL; Protein in aqueous humor, statistical comparison with CTR ([3]; 1% topical, p<0.001): statistical significance; Caspase-3 p17 subunit level (Western blot) (caspase-3): marked, concentration-dependent increase of the p17 subunit
